In patent US7592424B2, “Ion channel-like polypeptide and use thereof” (Kyoto University, priority 2004, dated 2009):

Target: Ciona intestinalis Ci-VSP cytoplasmic domain (phosphatase domain, residues 248-576 of Ci-VSP, SEQ ID NO: 2), wild type, GST fusion protein (GST-Ci-VSP) (Ciona intestinalis, UniProt Q4W8A1)
Assay: Malachite green assay of phosphoinositide phosphatase activity at various PIP3 concentrations, Michaelis-Menten fit
Format: biochemical
Settings: substrate PIP3, initial rate V0 at t=0, Michaelis-Menten fit (FIG. 4c)
Method: To express N-terminal fused protein of the cytoplasmic domain of Ci-VSP with the GST gene, the cDNA encoding residues 248-576 of Ci-VSP was subcloned into the EcoRI-XhoI site of pGEX4T3 (Amersham Pharmacia). GST-fused protein was expressed and purified from E. coli JM109 with glutathione-sepharose CL-4B (Amersham Pharmacia). Phosphatase activity of Ci-VSP was measured with the methods previously adopted for PTEN phosphatase.
To see whether the Ci-VSP has phosphatase activity that uses PI(3, 4, 5)P3 as a substrate, a fusion protein of GST and the whole C-terminal cytoplasmic region of Ci-VSP was synthesized. FIG. 3b represents phosphoinositide phosphatase activity of the fusion protein of glutathione s-transferase and the phosphatase-like domain of Ci-VSP by a malachite green assay using PI(3, 4, 5)P3 as a substrate. […] BIOMOL GREEN™ reagent (Biomol, Plymouth Meeting, Pa.) was added to the sample and […] was measured by using H2O as a reference. […]
Enzyme activity of Ci-VSP was examined with thin layer chromatography (TLC). […] Where there is enzyme activity using PI(3, 4, 5)P3 as a substrate, the degraded product PIP2(NBD6-diC6-PI(4, 5)P2) is detected. […]
Malachite green imparts pale yellow in the absence of inorganic phosphate. […] Thus, by measuring absorbance of malachite green at 620 nm, the inorganic phosphate that is generated by the degradation of PI(3, 4, 5)P3 to PI(4, 5)P2 can be quantified. […]

Sequence of Ciona intestinalis Ci-VSP cytoplasmic domain (phosphatase domain, residues 248-576 of Ci-VSP, SEQ ID NO: 2), wild type, GST fusion protein (GST-Ci-VSP) (Q4W8A1 entry or part of it): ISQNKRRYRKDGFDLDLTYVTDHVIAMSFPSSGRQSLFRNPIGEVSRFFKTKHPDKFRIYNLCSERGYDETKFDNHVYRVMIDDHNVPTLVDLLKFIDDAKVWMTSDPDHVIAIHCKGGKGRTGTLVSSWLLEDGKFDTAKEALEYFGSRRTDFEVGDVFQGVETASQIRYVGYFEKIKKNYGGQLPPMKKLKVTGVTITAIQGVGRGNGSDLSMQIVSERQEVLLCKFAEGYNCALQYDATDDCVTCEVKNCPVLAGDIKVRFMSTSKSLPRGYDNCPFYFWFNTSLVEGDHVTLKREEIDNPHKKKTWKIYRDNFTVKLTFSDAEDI

PIP3 was tested, and the “Vmax (maximum rate)” value was 0.292 nmol/min/µg and the Km (read-out: Km (substrate concentration required for 1/2 Vmax)) was 36 µM.
